Data: patent publication EP4803511A1, “SMALL MOLECULE COMPOUND HAVING SULFONIC ACID OR SULFINIC ACID LACTONE STRUCTURE, COMPOSITION AND USE THEREOF” (Hangzhou Phecdamed Co., Ltd., priority 2023, dated 2025)

Legend:
β-galactosidase = assay: Zebrafish oxidative aging model (menadione), β-galactosidase activity; format: in vivo; settings: I-8 at 22.2 µg/mL, 22 hrs, 4 µM menadione; compared with the modeling group, statistical significance
Experimental: (§1) Experimental animal: Healthy wild-type AB strain zebrafish at 48 hpf (hours post-fertilization)
(§2) Healthy AB strain zebrafish were taken as experimental animal. A zebrafish oxidative aging model was constructed using chemical mutagenesis with 4 µM menadione as the modeling drug. Fucoxanthin was used as a positive control compound. After treating the zebrafish oxidative aging model with different concentrations of I-8 for 22 hrs, changes in the reactive oxygen species (ROS) content, β-galactosidase activity, and the expression of three antioxidant and anti-aging related genes (Cu/Zn-sod, Mn-sod, and ampk) were respectively detected and statistically analyzed.
(§3) During the experiment, the modeling drug, positive compound, and I-8 were dispersed together in the culture water of zebrafish. […] Cell ROX™ Deep Red fluorescent probes and β-galactosidase staining kits were used to specifically label ROS and β-galactosidase in the fish, respectively, and the staining intensity was quantified using Image-Pro Plus software. After extracting RNA from the whole fish, the expression changes of three genes (Cu/Zn-sod, Mn-sod, and ampk) in the fish were detected at the mRNA level using Quantitative Real-time PCR (RT-qPCR). The data were statistically analyzed using GraphPad software.

Mn-sod = assay: Zebrafish oxidative aging model (menadione), Mn-sod gene expression by RT-qPCR; format: in vivo; settings: I-8 at 2.5, 7.5, and 22.2 µg/mL, 22 hrs, 4 µM menadione; compared to the modeling group, statistical significance
Experimental: as §1, §2, §3

EP2 = EP2 gene expression in HaCaT after UVB radiation (q-PCR); format: cell-based, human; settings: UVB 80 mJ/cm^2, 24 hrs, dose-dependent
From the text: (§4) In the following Test Examples 6-1 and 6-2, using immortalized keratinocytes (HaCaT) and UVB to establish a model, after the compound to be test was applied to HaCaT, the expression levels of TNF-α, IL-8, IL-1β and EP2 were detected; using immortalized keratinocytes (HaCaT) and capsaicin to establish a model, after the compound to be test was applied to HaCaT, the expression level of TRPV1 was detected, so as to evaluate the soothing effect of the test substance from multiple dimensions.
(§5) • 1) Cell inoculation: HaCaT cells were inoculated into a 6-well plate at 6×10^5/well, cultured in an incubator (37°C, 5% CO2) for 12 hrs, and a normal control group (0 mJ/cm^2 + vehicle control), a model control group (80 mJ/cm^2 + vehicle control), a low concentration group (80 mJ/cm^2 + low concentration compound), a medium concentration group (80 mJ/cm^2 + medium concentration compound), and a high concentration group (80 mJ/cm^2 + high concentration compounds) were respectively provided. • 2) UVB modeling: The HaCaT cells were washed 3 times with D'Hanks before UVB radiation, 1 mL of D'Hanks was added into the wells, to make the cells to be immersed, and the control group was coated with tinfoil and placed in the dark. […]

[1] = test system: wild-type AB strain zebrafish; assay: Zebrafish tail amputation model, wound repair efficacy (caudal fin area); format: in vivo; settings: I-8 at 1, 3, and 9 µg/mL, 48 hrs; compared with the modeling group, statistical significance
Experimental: Experimental animal: Healthy wild-type AB strain zebrafish at 3 dpf (days post fertilization)
Evaluation of wound repair efficacy: Healthy AB strain zebrafish were taken as experimental animal, and randomly divided into blank control group, modeling group, positive control group, and sample group. The zebrafish in the blank control group were treated with culture water; the zebrafish in the modeling group were treated with culture water after cutting the caudal fin; the zebrafish in the positive control group and sample group were treated with 600 µg/mL hyaluronic acid and I-8 with different concentrations (1, 3, 9 µg/mL) respectively after cutting the caudal fin. The larva fish in above groups were placed in a constant temperature incubator at 28.5 °C and kept in continuous darkness for 48 hrs, with the culture medium changed once every 24 hrs. Image-Pro Plus software was used to calculate the area of the caudal fin of each group of zebrafish. The data were statistically analyzed using GraphPad software.

TNF-α = TNF-α gene expression in HaCaT after UVB radiation (q-PCR); format: cell-based, human; settings: UVB 80 mJ/cm^2, 24 hrs, dose-dependent
From the text: as §4, §5

type I collagen = assay: Type I collagen expression in HSF human skin fibroblasts (ELISA); format: cell-based; settings: 24 hrs, dose-dependent
From the text: Skin fragility is partly attributed to changes in hemidesmosomes and the expression downregulation of various collagen proteins (Collagen I, III, IV, VII) or laminins (such as LN-5) at the dermal-epidermal junction. LN-5 has been proven to be a component of anchoring fibers in the basement membrane of the skin, cornea, conjunctiva, and other tissues. LN-5 participates in cell-cell interactions through the mediation of integrins and proteoglycans, thereby playing a crucial role in cell adhesion, growth, migration, and differentiation. The appearance of wrinkles is closely related to the normal synthesis and expression of collagen and laminins. Therefore, the increase of the above collagen content and LN-5 can achieve a certain role in resisting wrinkles, and plays an important role in the aging process of the skin. Therefore, the anti-wrinkle effect of the compound to be tested was evaluated by detecting the level of Collage I protein of […] by ELISA, and detecting the transcription levels of epidermal cells (keratinocytes) III, IV, VII and LN -5 by Real-Time PCR. The following Test Examples 8-1 and 8-2 evaluated the anti-wrinkle efficacy of compounds using HaCaT human immortalized keratinocytes and HSF human skin fibroblasts. […]

Structure (SMILES): O=S1(=O)Oc2cc(O)ccc2-c2ccc(O)cc21 [Compound I-8]
- β-galactosidase activity (β-galactosidase): downregulated
- expression of Mn-sod gene (Mn-sod): upregulated
- expression level of EP2 (EP2): downregulating
- caudal fin area [1]: increased
- expression level of TNF-α (TNF-α): downregulating
- secretion of type I collagen (type I collagen): improving the secretion of type I collagen
